Measurements from patent US20180194762A1 (Pharmacyclics LLC, priority 2017, published 2018).
Where two headings read alike, the source gives them in different places.

Legend:
Type in all cases: biochemical
[1] = biological target: T1, panel of kinases (Homo sapiens, UniProt P51813); test: Inhibition of a panel of kinases (in vitro HotSpot kinase assay, 33P-ATP, 1 μM ATP), other kinases; conditions: BMX wild-type, read-out: BMX-WT IC50
T1 sequence (P51813 1-675): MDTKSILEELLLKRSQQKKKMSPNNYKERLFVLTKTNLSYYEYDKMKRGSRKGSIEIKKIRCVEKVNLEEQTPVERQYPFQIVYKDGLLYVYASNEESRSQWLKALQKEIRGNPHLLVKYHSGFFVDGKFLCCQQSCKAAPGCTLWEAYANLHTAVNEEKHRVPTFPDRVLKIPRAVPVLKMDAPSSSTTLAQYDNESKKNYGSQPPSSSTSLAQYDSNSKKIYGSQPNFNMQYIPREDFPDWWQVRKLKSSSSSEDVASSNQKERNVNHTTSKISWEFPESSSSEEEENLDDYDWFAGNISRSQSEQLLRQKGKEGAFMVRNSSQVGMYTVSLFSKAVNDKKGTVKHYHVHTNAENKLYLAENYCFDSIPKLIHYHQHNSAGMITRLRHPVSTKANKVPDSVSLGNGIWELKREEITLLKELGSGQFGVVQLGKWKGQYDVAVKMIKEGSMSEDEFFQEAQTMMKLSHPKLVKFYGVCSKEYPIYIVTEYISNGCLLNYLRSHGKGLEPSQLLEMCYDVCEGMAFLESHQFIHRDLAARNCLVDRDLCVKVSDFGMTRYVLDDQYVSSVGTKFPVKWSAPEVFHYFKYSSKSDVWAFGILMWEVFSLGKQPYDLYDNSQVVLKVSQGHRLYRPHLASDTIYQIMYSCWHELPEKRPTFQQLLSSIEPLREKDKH
Method in brief: (§1)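 Degree of kinase inhibition is determined in vitro using isolated enzymes, a matched substrate and radiolabelled ATP (1 μM).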

[2] = biological target: T2, Btk (Homo sapiens, UniProt Q06187); test: Btk in vitro inhibitory activity (one of Method A TR-FRET, Method B electrophoretic mobility shift, Method C radiometric filter binding)
T2 construct: purified from insect cells as a full-length construct containing a N-terminal 6X-His tag; His6 (N); made in house; host or cells: insect cells (Method C)
T2 sequence (Q06187 whole entry): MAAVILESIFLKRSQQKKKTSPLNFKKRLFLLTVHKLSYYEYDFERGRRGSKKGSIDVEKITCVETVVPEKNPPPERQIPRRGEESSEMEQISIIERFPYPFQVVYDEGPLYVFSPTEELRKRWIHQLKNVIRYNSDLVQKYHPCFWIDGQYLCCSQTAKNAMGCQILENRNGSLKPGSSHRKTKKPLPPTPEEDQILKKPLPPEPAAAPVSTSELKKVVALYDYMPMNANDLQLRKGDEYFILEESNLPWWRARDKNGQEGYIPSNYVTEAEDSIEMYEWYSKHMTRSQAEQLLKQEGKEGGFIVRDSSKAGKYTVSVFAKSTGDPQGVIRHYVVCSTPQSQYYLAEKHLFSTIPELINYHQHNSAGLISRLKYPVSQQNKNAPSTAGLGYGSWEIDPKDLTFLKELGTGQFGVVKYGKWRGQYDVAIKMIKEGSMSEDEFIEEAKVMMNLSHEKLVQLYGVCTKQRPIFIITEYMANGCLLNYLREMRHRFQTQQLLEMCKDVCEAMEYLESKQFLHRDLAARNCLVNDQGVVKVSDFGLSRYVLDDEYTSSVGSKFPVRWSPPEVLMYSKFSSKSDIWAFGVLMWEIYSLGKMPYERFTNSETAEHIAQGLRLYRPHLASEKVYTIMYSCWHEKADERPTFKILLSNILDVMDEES
Method in brief: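 Method A: TR-FRET with 0.5 nM Btk at [ATP]=Km, EDTA-quenched, 665/615 nm ratio; Ki(app) converted to IC50. Method B: 1 nM full-length His6 human BTK, 1 μM FAM peptide, pH 7.5, mobility-shift product/sum ratio, 12-point 4-parameter fit. Method C: radiometric filter binding, 8 nM His-tagged BTK, 0.2 mg/mL poly-Glu-Tyr.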

[3] = biological target: T3, TEC (Homo sapiens, UniProt P42680); test: Inhibition of a panel of kinases (in vitro HotSpot kinase assay, 33P-ATP, 1 μM ATP); conditions: for IC50: HotSpot kinase assay, 1 μM ATP; for TEC/Btk: ratio of TEC IC50 to Btk IC50 (selectivity)
T3 sequence (P42680 1-631): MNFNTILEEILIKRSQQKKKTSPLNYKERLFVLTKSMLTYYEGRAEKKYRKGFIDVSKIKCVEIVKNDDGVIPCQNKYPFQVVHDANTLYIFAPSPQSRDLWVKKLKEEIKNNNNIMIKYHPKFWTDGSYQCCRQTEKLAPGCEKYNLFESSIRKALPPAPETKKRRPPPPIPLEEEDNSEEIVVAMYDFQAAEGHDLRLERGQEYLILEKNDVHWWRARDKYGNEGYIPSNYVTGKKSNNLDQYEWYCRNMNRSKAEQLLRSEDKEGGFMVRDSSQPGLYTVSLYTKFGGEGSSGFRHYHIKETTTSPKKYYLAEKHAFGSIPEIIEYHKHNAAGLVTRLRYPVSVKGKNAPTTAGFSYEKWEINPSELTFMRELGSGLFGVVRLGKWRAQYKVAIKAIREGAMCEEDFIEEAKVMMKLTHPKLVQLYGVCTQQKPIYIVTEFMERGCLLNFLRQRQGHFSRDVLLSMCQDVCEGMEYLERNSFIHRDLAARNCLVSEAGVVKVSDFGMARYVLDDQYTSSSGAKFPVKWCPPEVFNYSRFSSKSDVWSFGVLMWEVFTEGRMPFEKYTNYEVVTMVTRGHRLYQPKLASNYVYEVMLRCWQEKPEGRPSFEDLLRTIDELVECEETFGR
Method in brief: as §1

[4] = wild-type Btk, read-out: Btk-WT IC50
[5] = method is one of A, B or C, not stated which, read-out: IC50 values against Btk

| Structure (SMILES) | IC50 [1] [nM] | IC50 [2, 4] [nM] | IC50 [3] [nM] | TEC/Btk [3] | IC50 [2, 5] [nM] |
| --- | --- | --- | --- | --- | --- |
| C=CC(=O)N1CC[C@@H](Nc2n[nH]c3nccc(-c4cc(F)cc(CNC(=O)c5noc(C(C)(C)C)n5)c4)c23)C1 [Example 88, 5-tert-butyl-N-{[3-fluoro-5-(3-{[(3R)-1-(prop-2-enoyl)pyrrolidin-3-yl]amino}-1H-pyrazolo[3,4-b]pyridin-4-yl)phenyl]methyl}-1,2,4-oxadiazole-3-carboxamide] | 713 | 287 | 2380 | 8 | – |
| C=CC(=O)N1CC[C@@H](Nc2n[nH]c3nccc(-c4cc(F)cc(CNC(=O)c5ccc(C(C)(C)C)cc5)c4)c23)C1 [Example 89, 4-tert-butyl-N-{[3-fluoro-5-(3-{[(3R)-1-(prop-2-enoyl)pyrrolidin-3-yl]amino}-1H-pyrazolo[3,4-b]pyridin-4-yl)phenyl]methyl}benzamide] | 510 | > 10000 | 3280 | >100 | – |
| CC(C)(C)c1nc(C(=O)NCc2ccc(-c3ccnc4[nH]nc(N[C@@H]5CCCN(C=O)C5)c34)cc2F)no1 [Example 90, 5-tert-butyl-N-{[2-fluoro-4-(3-{[(3R)-1-formylpiperidin-3-yl]amino}-1H-pyrazolo[3,4-b]pyridin-4-yl)phenyl]methyl}-1,2,4-oxadiazole-3-carboxamide] | 2620 | 9.44 | 2250 | 238 | < 10 |
| CC(=O)N1CC[C@H](Nc2n[nH]c3nccc(-c4ccc(CNC(=O)c5noc(C(C)(C)C)n5)c(F)c4)c23)C1 [Example 92, N-{[4-(3-{[(3S)-1-acetylpyrrolidin-3-yl]amino}-1H-pyrazolo[3,4-b]pyridin-4-yl)-2-fluorophenyl]methyl}-5-tert-butyl-1,2,4-oxadiazole-3-carboxamide] | 7600 | 13.7 | 6920 | 505 | – |
| CC(C)(C)c1nc(C(=O)NCc2ccc(-c3ccnc4[nH]nc(N[C@H]5CCN(C=O)C5)c34)cc2F)no1 [Example 93, 5-tert-butyl-N-{[2-fluoro-4-(3-{[(3S)-1-formylpyrrolidin-3-yl]amino}-1H-pyrazolo[3,4-b]pyridin-4-yl)phenyl]methyl}-1,2,4-oxadiazole-3-carboxamide] | 3340 | 11.7 | 3770 | 322 | – |
| CC1(C(=O)N2CC[C@H](Nc3n[nH]c4nccc(-c5ccc(CNC(=O)c6noc(C(C)(C)C)n6)c(F)c5)c34)C2)COC1 [Example 94, 5-tert-butyl-N-{[2-fluoro-4-(3-{[(3S)-1-(3-methyloxetane-3-carbonyl)pyrrolidin-3-yl]amino}-1H-pyrazolo[3,4-b]pyridin-4-yl)phenyl]methyl}-1,2,4-oxadiazole-3-carboxamide] | > 10000 | 25.3 | > 10000 | >100 | – |
| C=CC(=O)N1CC[C@@H](Nc2n[nH]c3nccc(-c4ccc([C@H](C)NC(=O)c5noc(C(C)(C)C)n5)cc4)c23)C1 [Example 95, 5-tert-butyl-N-[(1S)-1-[4-(3-{[(3R)-1-(prop-2-enoyl)pyrrolidin-3-yl]amino}-1H-pyrazolo[3,4-b]pyridin-4-yl)phenyl]ethyl]-1,2,4-oxadiazole-3-carboxamide] | 774 | 67.9 | 924 | 14 | – |
| C=CC(=O)N1CC[C@@H](Nc2n[nH]c3nccc(-c4ccc([C@H](C)NC(=O)c5ccc(C(C)(C)C)cc5)cc4)c23)C1 [Example 97, 4-tert-butyl-N-[(1S)-1-[4-(3-{[(3R)-1-(prop-2-enoyl)pyrrolidin-3-yl]amino}-1H-pyrazolo[3,4-b]pyridin-4-yl)phenyl]ethyl]benzamide] | 709 | 309 | 1570 | 5 | – |
| C=CC(=O)N1CC[C@@H](Nc2n[nH]c3nccc(-c4ccc([C@@H](C)NC(=O)c5noc(C(C)(C)C)n5)cc4)c23)C1 [Example 98, 5-tert-butyl-N-[(1R)-1-[4-(3-{[(3R)-1-(prop-2-enoyl)pyrrolidin-3-yl]amino}-1H-pyrazolo[3,4-b]pyridin-4-yl)phenyl]ethyl]-1,2,4-oxadiazole-3-carboxamide] | 239 | 0.165 | 108 | 652 | < 10 |
| CC(C)(C)c1ccc(C(=O)NCc2ccc(-c3ccnc4[nH]nc(N5CC[C@@H](N)C5)c34)cc2F)cc1 [Example 100, N-[(4-{3-[(3R)-3-aminopyrrolidin-1-yl]-1H-pyrazolo[3,4-b]pyridin-4-yl}-2-fluorophenyl)methyl]-4-tert-butylbenzamide] | 1890 | 13.8 | 2970 | 215 | – |
| C=CC(=O)N[C@@H]1CCN(c2n[nH]c3nccc(-c4ccc(CNC(=O)c5ccc(C(C)(C)C)cc5)c(F)c4)c23)C1 [Example 101, 4-tert-butyl-N-[(2-fluoro-4-{3-[(3R)-3-(prop-2-enamido)pyrrolidin-1-yl]-1H-pyrazolo[3,4-b]pyridin-4-yl}phenyl)methyl]benzamide] | 122 | 0.22 | 96 | 434 | < 10 |
| C=CC(=O)N[C@@H]1CCN(c2n[nH]c3nccc(-c4ccc(CNC(=O)c5noc(C(C)(C)C)n5)c(F)c4)c23)C1 [Example 102, 5-tert-butyl-N-[(2-fluoro-4-{3-[(3R)-3-(prop-2-enamido)pyrrolidin-1-yl]-1H-pyrazolo[3,4-b]pyridin-4-yl}phenyl)methyl]-1,2,4-oxadiazole-3-carboxamide] | 33 | 0.0652 | 20 | 305 | < 10 |
| CC(C)(C)c1ccc(C(=O)NCc2ccc(-c3ccnc4[nH]nc(NC5CCNCC5)c34)cc2F)cc1 [Example 103, 4-tert-butyl-N-[(2-fluoro-4-{3-[(piperidin-4-yl)amino]-1H-pyrazolo[3,4-b]pyridin-4-yl}phenyl)methyl]benzamide] | 4440 | 172 | > 10000 | >100 | – |
| C=CC(=O)N1CCC(Nc2n[nH]c3nccc(-c4ccc(CNC(=O)c5ccc(C(C)(C)C)cc5)c(F)c4)c23)CC1 [Example 104, 4-tert-butyl-N-{[2-fluoro-4-(3-{[1-(prop-2-enoyl)piperidin-4-yl]amino}-1H-pyrazolo[3,4-b]pyridin-4-yl)phenyl]methyl}benzamide] | 897 | 1.87 | 1560 | 834 | < 10 |
| C=CC(=O)N1CCC(Nc2n[nH]c3nccc(-c4ccc(CNC(=O)c5noc(C(C)(C)C)n5)c(F)c4)c23)CC1 [Example 105, 5-tert-butyl-N-{[2-fluoro-4-(3-{[1-(prop-2-enoyl)piperidin-4-yl]amino}-1H-pyrazolo[3,4-b]pyridin-4-yl)phenyl]methyl}-1,2,4-oxadiazole-3-carboxamide] | 312 | 0.457 | 470 | 1028 | < 10 |
| C=CC(=O)N1CC(Nc2n[nH]c3nccc(-c4ccc(CNC(=O)c5ccc(C(C)(C)C)cc5)c(F)c4)c23)C1 [Example 106, 4-tert-butyl-N-{[2-fluoro-4-(3-{[1-(prop-2-enoyl)azetidin-3-yl]amino}-1H-pyrazolo[3,4-b]pyridin-4-yl)phenyl]methyl}benzamide] | > 10000 | > 10000 | > 10000 | – | – |
